In patent US11319299B2, “Substituted carboxamides as inhibitors of WDR5 protein-protein binding” (PROPELLON THERAPEUTICS INC., priority 2016, dated 2022) one finds Kd data, which are given here for 23 compounds.

The assay addresses WDR5 (Homo sapiens (Human), UniProt P61964). Kind of assay: Surface Plasmon Resonance (SPR) assay, KD and residence time. The assay is classed as binding. Particulars: surface plasmon resonance (SPR); read-out: WDR5 binding affinity (KD). (In general: Surface plasmon resonance follows binding to a sensor surface in real time, without labels.)
Regarding `C[C@@H]1CN(c2cc(F)c(C3=CCN(c4ncc(CN5CCN(C)CC5)cn4)CC3)cc2NC(=O)c2c[nH]c(=O)cc2C(F)(F)F)C[C@H](C)N1C` [Example 407, N-[4-fluoro-5-[1-[5-[(4-methylpiperazin-1-yl)methyl]pyrimidin-2-yl]-3,6-dihydro-2H-pyridin-4-yl]-2-[(3R,5S)-3,4,5-trimethylpiperazin-1-yl]phenyl]-6-oxo-4-(trifluoromethyl)-1H-pyridine-3-carboxamide], the Kd was 0.231 nM. The result for `CC(C)COC(=O)N1CCC=C(c2cc(NC(=O)c3c[nH]c(=O)cc3C(F)(F)F)c(N3C[C@@H](C)N(C)[C@@H](C)C3)cc2F)C1` [Example 408, 2-methylpropyl 5-[2-fluoro-5-[[6-oxo-4-(trifluoromethyl)-1H-pyridine-3-carbonyl]amino]-4-[(3R,5S)-3,4,5-trimethylpiperazin-1-yl]phenyl]-3,6-dihydro-2H-pyridine-1-carboxylate] reads 2.75 nM; that for `C[C@@H]1CN(c2cc(F)c(C3=CCCN(c4ncc(C=O)cn4)C3)cc2NC(=O)c2c[nH]c(=O)cc2C(F)(F)F)C[C@H](C)N1C` [Example 409, N-[4-fluoro-5-[1-(5-formylpyrimidin-2-yl)-3,6-dihydro-2H-pyridin-5-yl]-2-[(3R,5S)-3,4,5-trimethylpiperazin-1-yl]phenyl]-6-oxo-4-(trifluoromethyl)-1H-pyridine-3-carboxamide], 0.229 nM. The result for `C[C@@H]1CN(c2cc(F)c(C3=CCCN(c4ncc(CN5CCN(C)CC5)cn4)C3)cc2NC(=O)c2c[nH]c(=O)cc2C(F)(F)F)C[C@H](C)N1C` [Example 416, N-[4-fluoro-5-[1-[5-[(4-methylpiperazin-1-yl)methyl]pyrimidin-2-yl]-3,6-dihydro-2H-pyridin-5-yl]-2-[(3R,5S)-3,4,5-trimethylpiperazin-1-yl]phenyl]-6-oxo-4-(trifluoromethyl)-1H-pyridine-3-carboxamide] reads 0.108 nM; that for `CCN(CC)[C@@H]1CCN(c2cc(F)c(-c3cnc(N4CCOCC4)nc3)cc2NC(=O)c2c[nH]c(=O)cc2C(F)(F)F)C1` [Example 419, N-[4-fluoro-5-(2-morpholin-4-ylpyrimidin-5-yl)-2-[(3R)-3-(diethylamino)pyrrolidin-1-yl]phenyl]-6-oxo-4-(trifluoromethyl)-1H-pyridine-3-carboxamide], 5.37 nM; that for `CC(C)N(C)[C@@H]1CCN(c2cc(F)c(-c3cnc(N4CCOCC4)nc3)cc2NC(=O)c2c[nH]c(=O)cc2C(F)(F)F)C1` [Example 420, N-[4-fluoro-5-(2-morpholin-4-ylpyrimidin-5-yl)-2-[(3R)-3-[methyl(propan-2-yl)amino]pyrrolidin-1-yl]phenyl]-6-oxo-4-(trifluoromethyl)-1H-pyridine-3-carboxamide], 172 nM. Next, `C[C@@H]1CN(c2ccc(-c3cc(NC(=O)c4cn(C)c(=O)cc4C(F)(F)F)c(N4C[C@@H](C)N(C)[C@@H](C)C4)cc3F)cn2)C[C@H](C)O1` [Example 422, N-[4-fluoro-5-[6-[(2R,6S)-2,6-dimethylmorpholin-4-yl]pyridin-3-yl]-2-[(3S,5R)-3,4,5-trimethylpiperazin-1-yl]phenyl]-1-methyl-6-oxo-4-(trifluoromethyl)pyridine-3-carboxamide]: 2.43 nM. On to `C[C@@H]1CN(c2cc(F)c(-c3cnc(N4CCC(C)(O)CC4)nc3)cc2NC(=O)c2c[nH]c(=O)cc2C(F)(F)F)C[C@H](C)N1C` [Example 425, N-[4-fluoro-5-[2-(4-hydroxy-4-methylpiperidin-1-yl)pyrimidin-5-yl]-2-[(3R,5S)-3,4,5-trimethylpiperazin-1-yl]phenyl]-6-oxo-4-(trifluoromethyl)-1H-pyridine-3-carboxamide], for which the Kd was 1.06 nM. Next, `CCN(CC)[C@@H]1CCN(c2cc(F)c(-c3cnc(N4CCOCC4)nc3)cc2NC(=O)c2cn(C)c(=O)cc2C(F)(F)F)C1` [Example 428, N-[4-fluoro-5-(2-morpholin-4-ylpyrimidin-5-yl)-2-[(3R)-3-(diethylamino)pyrrolidin-1-yl]phenyl]-1-methyl-6-oxo-4-(trifluoromethyl)pyridine-3-carboxamide]: 145 nM; `C[C@@H]1CN(c2ncc(-c3cc(NC(=O)c4ccc(F)cc4C(F)(F)F)c(N4C[C@@H](C)N(C)[C@@H](C)C4)cc3F)cn2)C[C@H](C)O1` [Example 431, 4-fluoro-N-[4-fluoro-5-[2-[(2R,6S)-2,6-dimethylmorpholin-4-yl]pyrimidin-5-yl]-2-[(3S,5R)-3,4,5-trimethylpiperazin-1-yl]phenyl]-2-(trifluoromethyl)benzamide]: 0.649 nM. For `C[C@@H]1CN(c2ccc(-c3cc(NC(=O)c4ccc(F)cc4C(F)(F)F)c(N4C[C@@H](C)N(C)[C@@H](C)C4)cc3F)cn2)C[C@H](C)O1` [Example 432, 4-fluoro-N-[4-fluoro-5-[6-[(2R,6S)-2,6-dimethylmorpholin-4-yl]pyridin-3-yl]-2-[(3S,5R)-3,4,5-trimethylpiperazin-1-yl]phenyl]-2-(trifluoromethyl)benzamide], the Kd was 2.31 nM. Next, `C[C@@H]1CN(c2cc(F)c(-c3ccc(N4CCOCC4)c(F)c3)cc2NC(=O)c2c[nH]c(=O)cc2C(F)F)C[C@H](C)N1C` [Example 436, 4-(difluoromethyl)-N-[4-fluoro-5-(3-fluoro-4-morpholin-4-ylphenyl)-2-[(3R,5S)-3,4,5-trimethylpiperazin-1-yl]phenyl]-6-oxo-1H-pyridine-3-carboxamide]: 1.39 nM; `COc1cnc(N2CC=C(c3cc(NC(=O)c4c[nH]c(=O)cc4C(F)(F)F)c(N4C[C@@H](C)N(C)[C@@H](C)C4)cc3F)C2)nc1` [Example 437, N-[4-fluoro-5-[1-(5-methoxypyrimidin-2-yl)-2,5-dihydropyrrol-3-yl]-2-[(3R,5S)-3,4,5-trimethylpiperazin-1-yl]phenyl]-6-oxo-4-(trifluoromethyl)-1H-pyridine-3-carboxamide]: 0.721 nM; `COc1cc(N2CC=C(c3cc(NC(=O)c4c[nH]c(=O)cc4C(F)(F)F)c(N4C[C@@H](C)N(C)[C@@H](C)C4)cc3F)C2)ncn1` [Example 438, N-[4-fluoro-5-[1-(6-methoxypyrimidin-4-yl)-2,5-dihydropyrrol-3-yl]-2-[(3R,5S)-3,4,5-trimethylpiperazin-1-yl]phenyl]-6-oxo-4-(trifluoromethyl)-1H-pyridine-3-carboxamide]: 1.99 nM. The result for `Cc1cnc(N2CC=C(c3cc(NC(=O)c4c[nH]c(=O)cc4C(F)(F)F)c(N4C[C@@H](C)N(C)[C@@H](C)C4)cc3F)C2)nc1` [Example 439, N-[4-fluoro-5-[1-(5-methylpyrimidin-2-yl)-2,5-dihydropyrrol-3-yl]-2-[(3R,5S)-3,4,5-trimethylpiperazin-1-yl]phenyl]-6-oxo-4-(trifluoromethyl)-1H-pyridine-3-carboxamide] reads 2.45 nM. The result for `C[C@@H]1CN(c2cc(F)c(C3=CCN(c4ncc(F)cn4)C3)cc2NC(=O)c2c[nH]c(=O)cc2C(F)(F)F)C[C@H](C)N1C` [Example 440, N-[4-fluoro-5-[1-(5-fluoropyrimidin-2-yl)-2,5-dihydropyrrol-3-yl]-2-[(3R,5S)-3,4,5-trimethylpiperazin-1-yl]phenyl]-6-oxo-4-(trifluoromethyl)-1H-pyridine-3-carboxamide] reads 2.88 nM; that for `C[C@@H]1CN(c2cc(F)c(C3=CCN(C(=O)N4CCCC4)C3)cc2NC(=O)c2c[nH]c(=O)cc2C(F)(F)F)C[C@H](C)N1C` [Example 441, N-[4-fluoro-5-[1-(pyrrolidine-1-carbonyl)-2,5-dihydropyrrol-3-yl]-2-[(3R,5S)-3,4,5-trimethylpiperazin-1-yl]phenyl]-6-oxo-4-(trifluoromethyl)-1H-pyridine-3-carboxamide], 1.91 nM; that for `C[C@@H]1CN(c2cc(F)c(C3=CCN(C(=O)c4cnccn4)C3)cc2NC(=O)c2c[nH]c(=O)cc2C(F)(F)F)C[C@H](C)N1C` [Example 442, N-[4-fluoro-5-[1-(pyrazine-2-carbonyl)-2,5-dihydropyrrol-3-yl]-2-[(3R,5S)-3,4,5-trimethylpiperazin-1-yl]phenyl]-6-oxo-4-(trifluoromethyl)-1H-pyridine-3-carboxamide], 3.67 nM. On to `CC(C)COC(=O)N1CC=C(c2cc(NC(=O)c3c[nH]c(=O)cc3C(F)(F)F)c(N3C[C@@H](C)N(C)[C@@H](C)C3)cc2F)C1` [Example 443, 2-methylpropyl 3-[2-fluoro-5-[[6-oxo-4-(trifluoromethyl)-1H-pyridine-3-carbonyl]amino]-4-[(3R,5S)-3,4,5-trimethylpiperazin-1-yl]phenyl]-2,5-dihydropyrrole-1-carboxylate], for which the Kd was determined as 2.37 nM. For the compound `C[C@@H]1CN(c2cc(F)c(C3=CCN(c4ncc(C=O)cn4)C3)cc2NC(=O)c2c[nH]c(=O)cc2C(F)(F)F)C[C@H](C)N1C` [Example 444, N-[4-fluoro-5-[1-(5-formylpyrimidin-2-yl)-2,5-dihydropyrrol-3-yl]-2-[(3R,5S)-3,4,5-trimethylpiperazin-1-yl]phenyl]-6-oxo-4-(trifluoromethyl)-1H-pyridine-3-carboxamide], the Kd worked out at 2.96 nM.

For the compound `C[C@@H]1CN(c2cc(F)c(-c3cnn(C)c3)cc2NC(=O)c2c[nH]c(=O)cc2C(F)(F)F)C[C@H](C)N1C` [Example 445, N-[4-fluoro-5-(1-methylpyrazol-4-yl)-2-[(3R,5S)-3,4,5-trimethylpiperazin-1-yl]phenyl]-6-oxo-4-(trifluoromethyl)-1H-pyridine-3-carboxamide], the Kd worked out at 1.95 nM. Next, `C[C@@H]1CN(c2cc(F)c(-c3nc(C#N)cs3)cc2NC(=O)c2c[nH]c(=O)cc2C(F)(F)F)C[C@H](C)N1C` [Example 446, N-[5-(4-cyano-1,3-thiazol-2-yl)-4-fluoro-2-[(3R,5S)-3,4,5-trimethylpiperazin-1-yl]phenyl]-6-oxo-4-(trifluoromethyl)-1H-pyridine-3-carboxamide]: 2.94 nM. Next, `C[C@@H]1CN(c2cc(F)c(-c3ncc(C#N)s3)cc2NC(=O)c2c[nH]c(=O)cc2C(F)(F)F)C[C@H](C)N1C` [Example 447, N-[5-(5-cyano-1,3-thiazol-2-yl)-4-fluoro-2-[(3R,5S)-3,4,5-trimethylpiperazin-1-yl]phenyl]-6-oxo-4-(trifluoromethyl)-1H-pyridine-3-carboxamide]: 2.88 nM.

The term Kd denotes the equilibrium constant for the complex coming apart.
